pIC50: −log10 of the molar value.
System: HT29 cells
Assay: Inhibition of cell necrosis (CCK8 method), induced programmed necrosis of HT29 cells
Assay type: cell-based
Details: Homo sapiens, HT-29; rescue from necrosis induced by TNF-α 20 ng/mL, AT-406 1 μM, Z-VAD-FMK 20 μM; 16-20 hours; CCK-8, OD 450 nm
In short: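 HT29 cells in McCOY's 5A with 10% FBS were pre-treated for 30 min with compound (9 fourfold steps, 25000 to 0.38 nM final, 0.25% DMSO). Necrosis was then induced with TNF-α 20 ng/mL, AT-406 1 μM and Z-VAD-FMK 20 μM for 16-20 h. Viability was read by CCK-8 OD450, normalized between uninduced and induced wells, and IC50 was curve-fitted.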

## CC(C)(O)CCCOc1ccc(F)c(-c2cc(NC(=O)c3nnc(Cc4ccccc4F)[nH]3)ncc2Cl)c1 [Example 320, N-(5-chloro-4-(2-fluoro-5-((4-hydroxy-4-methylpentyl)oxy)phenyl)pyridin-2-yl)-5-(2-fluorobenzyl)-4H-1,2,4-triazole-3-carboxamide]
  pIC50: 6.00 to 7.00

## COc1ncc(C)cc1-c1ccnc(NC(=O)c2nnc(Cc3ccccc3)[nH]2)c1 [Example 50, 5-benzyl-N-(2-methoxy-5-methyl-[3,4′-bipyridin]-2′-yl)-4H-1,2,4-triazole-3-carboxamide]
  pIC50: 5.00 to 6.00

## Cc1ccc(OCCC2OCCO2)cc1-c1ccnc(NC(=O)c2nnc(Cc3ccccc3)[nH]2)c1 [Example 137, N-(4-(5-(2-(1,3-dioxolan-2-yl)ethoxy)-2-methylphenyl)pyridin-2-yl)-5-benzyl-4H-1,2,4-triazole-3-carboxamide]
  pIC50: ≥ 7.00

## Cc1ccc(OCCCC(C)(C)O)cc1-c1ccnc(NC(=O)c2nnc(Cc3cc(F)cc(F)c3F)[nH]2)c1 [Example 215, 5-(2,3,5-trifluorobenzyl)-N-(4-(5-((4-hydroxy-4-methylpentyl)oxy)-2-methylphenyl)pyridin-2-yl)-4H-1,2,4-triazole-3-carboxamide]
  pIC50: ≥ 7.00

## Cc1ccc(OCCCC(N)=O)cc1-c1ccnc(NC(=O)c2nnc(Cc3ccccc3)[nH]2)c1 [Example 157, N-(4-(5-(4-amino-4-oxobutoxy)-2-methylphenyl)pyridin-2-yl)-5-benzyl-4H-1,2,4-triazole-3-carboxamide]
  pIC50: 6.00 to 7.00

## Cc1ccc(OC(C)C)cc1-c1cncc(NC(=O)c2nnc(Cc3ccccc3)[nH]2)c1 [Example 113, 5-benzyl-N-(5-(5-isopropoxy-2-methylphenyl)pyridin-3-yl)-4H-1,2,4-triazole-3-carboxamide]
  pIC50: < 5.00

## CC(C)(O)CCCOc1ccc(Cl)c(-c2cc(NC(=O)c3nnc(CC4CCCCC4)[nH]3)ncc2Cl)c1 [Example 412, N-(5-chloro-4-(2-chloro-5-((4-hydroxy-4-methylpentyl)oxy)phenyl)pyridin-2-yl)-5-(cyclohexylmethyl)-4H-1,2,4-triazole-3-carboxamide]
  pIC50: 6.00 to 7.00

## CCOCCCOc1ccc(C)c(-c2ccnc(NC(=O)c3nnc(Cc4ccccc4)[nH]3)c2)c1 [Example 147, 5-benzyl-N-(4-(5-(3-ethoxypropoxy)-2-methylphenyl)pyridin-2-yl)-4H-1,2,4-triazole-3-carboxamide]
  pIC50: ≥ 7.00

## CSCCCOc1ccc(C)c(-c2ccnc(NC(=O)c3nnc(Cc4ccccc4)[nH]3)c2)c1 [Example 72, 5-benzyl-N-(4-(2-methyl-5-(3-(methylthio)propoxy)phenyl)pyridin-2-yl)-4H-1,2,4-triazole-3-carboxamide]
  pIC50: ≥ 7.00

## Cc1cnc(NC(=O)c2nnc(Cc3ccccc3F)[nH]2)cc1-c1cc(OCCCC(C)(C)O)ccc1F [Example 322, N-(4-(2-fluoro-5-((4-hydroxy-4-methylpentyl)oxy)phenyl)-5-methylpyridin-2-yl)-5-(2-fluorobenzyl)-4H-1,2,4-triazole-3-carboxamide]
  pIC50: 6.00 to 7.00

## O=C(Nc1cc(-c2ccccc2OC(F)(F)F)ccn1)c1nnc(Cc2ccccc2)[nH]1 [Example 6, 5-benzyl-N-(4-(2-(trifluoromethoxy)phenyl)pyridin-2-yl)-4H-1,2,4-triazole-3-carboxamide]
  pIC50: 5.00 to 6.00

## O=C(Nc1cc(-c2cc(OCCC3CCOCC3)ccc2C(F)(F)F)ncn1)c1nnc(CC2CCCC2)[nH]1 [Example 460, 5-(cyclopentylmethyl)-N-(6-(5-(2-(tetrahydro-2H-pyran-4-yl)ethoxy)-2-(trifluoromethyl)phenyl)pyrimidin-4-yl)-4H-1,2,4-triazole-3-carboxamide]
  pIC50: ≥ 7.00

## CC(C)(O)CCCCOc1ccc(F)c(-c2cc(NC(=O)c3nnc(Cc4ccccc4F)[nH]3)ncc2Cl)c1 [Example 325, N-(5-chloro-4-(2-fluoro-5-((5-hydroxyl-5-methylhexyl)oxy)phenyl)pyridin-2-yl)-5-(2-fluorobenzyl)-4H-1,2,4-triazole-3-carboxamide]
  pIC50: 6.00 to 7.00

## Cc1ccc(OCCCC(C)(C)O)cc1-c1cc(NC(=O)c2nnc(Cc3ccccc3)[nH]2)ncn1 [Example 432, 5-benzyl-N-(6-(5-((4-hydroxy-4-methylpentyl)oxy)-2-methylphenyl)pyrimidin-4-yl)-4H-1,2,4-triazole-3-carboxamide]
  pIC50: ≥ 7.00

## CC(C)OCCOc1ccc(C(F)(F)F)c(-c2ccnc(NC(=O)c3nnc(Cc4ccccc4F)[nH]3)c2)c1 [Example 288, 5-(2-fluorobenzyl)-N-(4-(5-(2-isopropoxyethoxy)-2-(trifluoromethyl)phenyl)pyridin-2-yl)-4H-1,2,4-triazole-3-carboxamide]
  pIC50: ≥ 7.00

## O=C(Nc1cc(C2CCCCC2)ccn1)c1nnc(Cc2ccccc2)[nH]1 [Example 48, 5-benzyl-N-(4-cyclohexylpyridin-2-yl)-4H-1,2,4-triazole-3-carboxamide]
  pIC50: < 5.00

## Cc1ccc(C(C)(C)O)cc1-c1ccnc(NC(=O)c2nnc(Cc3ccccc3)[nH]2)c1 [Example 199, 5-benzyl-N-(4-(5-(2-hydroxypropan-2-yl)-2-methylphenyl)pyridin-2-yl)-4H-1,2,4-triazole-3-carboxamide]
  pIC50: 5.00 to 6.00

## CCOc1ccc(Cl)c(-c2cncc(NC(=O)c3nnc(Cc4ccccc4)[nH]3)c2)c1 [Example 105, 5-benzyl-N-(5-(2-chloro-5-ethoxyphenyl)pyridin-3-yl)-4H-1,2,4-triazole-3-carboxamide]
  pIC50: < 5.00

## O=C(Nc1cc(-c2cc(OCC3CCOCC3)ccc2Cl)ncn1)c1nnc(Cc2ccccc2)[nH]1 [Example 466, 5-benzyl-N-(6-(2-chloro-5-((tetrahydro-2H-pyran-4-yl)methoxy)phenyl)pyrimidin-4-yl)-4H-1,2,4-triazole-3-carboxamide]
  pIC50: ≥ 7.00

## O=C(Nc1cc(-c2cc(OCCC3CCOCC3)ccc2Cl)c(Cl)cn1)c1nnc(CC2CCCCC2)[nH]1 [Example 431, N-(5-chloro-4-(2-chloro-5-(2-(tetrahydro-2H-pyran-4-yl)ethoxy)phenyl)pyridin-2-yl)-5-(cyclohexylmethyl)-4H-1,2,4-triazole-3-carboxamide]
  pIC50: 6.00 to 7.00

## O=C(Nc1cc(-c2cc(OCCCCO)ccc2Cl)ccn1)c1nnc(CC2CCCCC2)[nH]1 [Example 374, N-(4-(2-chloro-5-(4-hydroxybutoxy)phenyl)pyridin-2-yl)-5-(cyclohexylmethyl)-4H-1,2,4-triazole-3-carboxamide]
  pIC50: ≥ 7.00

## COCCOc1cccc(C)c1-c1ccnc(NC(=O)c2nnc(Cc3ccccc3)[nH]2)c1 [Example 94, 5-benzyl-N-(4-(2-(2-methoxyethoxy)-6-methylphenyl)pyridin-2-yl)-4H-1,2,4-triazole-3-carboxamide]
  pIC50: 5.00 to 6.00

## COCCCOc1ccc(C(F)(F)F)c(-c2ccnc(NC(=O)c3nnc(Cc4ccccc4)[nH]3)c2)c1 [Example 295, 5-benzyl-N-(4-(5-(3-methoxypropoxy)-2-(trifluoromethyl)phenyl)pyridin-2-yl)-4H-1,2,4-triazole-3-carboxamide]
  pIC50: ≥ 7.00

## COCCCOc1ccc(C(F)(F)F)c(-c2ccnc(NC(=O)c3nnc(CC4CCCCC4)[nH]3)c2)c1 [Example 298, 5-(cyclohexylmethyl)-N-(4-(5-(3-methoxypropoxy)-2-(trifluoromethyl)phenyl)pyridin-2-yl)-4H-1,2,4-triazole-3-carboxamide]
  pIC50: ≥ 7.00

## Cc1ccc(OCC2CCCO2)cc1-c1ccnc(NC(=O)c2nnc(Cc3ccccc3)[nH]2)c1 (centres unmarked) [Example 121, 5-benzyl-N-(4-(2-methyl-5-((tetrahydrofuran-2-yl)methoxy)phenyl)pyridin-2-yl)-4H-1,2,4-triazole-3-carboxamide]
  pIC50: ≥ 7.00

## Cc1ccc(OCCCC(C)(C)O)cc1-c1cc(NC(=O)c2nnc(CC3CCCCC3)[nH]2)ncc1Cl [Example 239, N-(5-chloro-4-(5-((4-hydroxy-4-methylpentyl)oxy)-2-methylphenyl)pyridin-2-yl)-5-(cyclohexylmethyl)-4H-1,2,4-triazole-3-carboxamide]
  pIC50: ≥ 7.00

## CCC(O)(CC)CCCOc1ccc(C)c(-c2cc(NC(=O)c3nnc(CC4CCCCC4)[nH]3)ncc2F)c1 [Example 243, 5-(cyclohexylmethyl)-N-(4-(5-((4-ethyl-4-hydroxyhexyl)oxy)-2-methylphenyl)-5-fluoropyridin-2-yl)-4H-1,2,4-triazole-3-carboxamide]
  pIC50: ≥ 7.00

## COCCCN(C)c1ccc(C)c(-c2ccnc(NC(=O)c3nnc(Cc4ccccc4)[nH]3)c2)c1 [Example 58, 5-benzyl-N-(4-(5-((3-methoxypropyl)(methyl)amino)-2-methylphenyl)pyridin-2-yl)-4H-1,2,4-triazole-3-carboxamide]
  pIC50: 6.00 to 7.00

## Cc1ccccc1-c1cncc(NC(=O)c2nnc(Cc3ccccc3)[nH]2)c1 [Example 29, 5-benzyl-N-(5-(o-methylphenyl)pyridin-3-yl)-4H-1,2,4-triazole-3-carboxamide]
  pIC50: < 5.00

## Cc1ccc(OCCCC(C)(C)O)cc1-c1ccnc(NC(=O)c2nnc(Cc3ccc(F)c(F)c3F)[nH]2)c1 [Example 214, 5-(2,3,4-trifluorobenzyl)-N-(4-(5-((4-hydroxy-4-methylpentyl)oxy)-2-methylphenyl)pyridin-2-yl)-4H-1,2,4-triazole-3-carboxamide]
  pIC50: ≥ 7.00

## Cc1ccc(OCCCC#N)cc1-c1ccnc(NC(=O)c2nnc(Cc3ccccc3)[nH]2)c1 [Example 148, 5-benzyl-N-(4-(5-(3-cyanopropoxy)-2-methylphenyl)pyridin-2-yl)-4H-1,2,4-triazole-3-carboxamide]
  pIC50: ≥ 7.00

## Cc1cnc(NC(=O)c2nnc(Cc3ccccc3F)[nH]2)cc1-c1cc(OCCC2CCOCC2)ccc1F [Example 335, N-(4-(2-fluoro-5-(2-(tetrahydro-2H-pyran-4-yl)ethoxy)phenyl)-5-methylpyridin-2-yl)-5-(2-fluorobenzyl)-4H-1,2,4-triazole-3-carboxamide]
  pIC50: 5.00 to 6.00

Reference: US12435060B2, “Acylamino bridged heterocyclic compound, and composition and application thereof” (BEIJING SCITECH-MQ PHARMACEUTICALS LIMITED, priority 2019, dated 2025)
